# Experimental data as given in ChEMBL document CHEMBL1201862, “PubChem BioAssay data set” (2004).
#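 Each compound was tested at five concentrations against cells in 96-well plates for 48 hours. GI50 = concentration required for 50% inhibition of growth.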 Activity calls are given as the source filed them. No stated cut-off is given here; in the data, active = GI50 up to about 1.1 µM and inactive = higher.
# Legend:
# Experiment in all cases: DTP human tumour cell line panel, 48 h
# 786-0 = system: 786-0
# A549 = system: A549
# CCRF-CEM = system: CCRF-CEM
# DMS-273 = system: DMS-273
# HCT-116 = system: HCT-116
# HOP-18 = system: HOP-18
# K562 = system: K562
# KM12 = system: KM12
# LOX IMVI = system: LOX IMVI
# LXFL 529 = system: LXFL 529
# M14 = system: M14
# OVCAR-5 = system: OVCAR-5
# SK-MEL-2 = system: SK-MEL-2
# SN12C = system: SN12C
# SNB-75 = system: SNB-75
# SR = system: SR
# XF498 = system: XF498
# CAKI-1 = system: CAKI-1
# MCF7 = system: MCF7
Structure (SMILES),GI50 (786-0),GI50 (A549),GI50 (CCRF-CEM),GI50 (DMS-273),GI50 (HCT-116),GI50 (HOP-18),GI50 (K562),GI50 (KM12),GI50 (LOX IMVI),GI50 (LXFL 529),GI50 (M14),GI50 (OVCAR-5),GI50 (SK-MEL-2),GI50 (SN12C),GI50 (SNB-75),GI50 (SR),GI50 (XF498),GI50 (CAKI-1),GI50 (MCF7)
C1CNCCNCCNCCN1,> 100 µM (inactive),> 100 µM (inactive),> 100 µM (inactive),53.8 µM (inactive),50.1 µM (inactive),> 100 µM (inactive),70.5 µM (inactive),> 100 µM (inactive),> 100 µM (inactive),> 100 µM (inactive),> 100 µM (inactive),> 100 µM (inactive),> 100 µM (inactive),> 100 µM (inactive),> 100 µM (inactive),51.6 µM (inactive),0.14 µM (active),,
CC(C)(C)[Si](C)(C)OCCCC#CCO,,> 100 µM (inactive),38.7 µM (inactive),> 100 µM (inactive),,< 0.01 µM (active),98.2 µM (inactive),> 100 µM (inactive),> 100 µM (inactive),> 100 µM (inactive),> 100 µM (inactive),> 100 µM (inactive),> 100 µM (inactive),> 100 µM (inactive),> 100 µM (inactive),,> 100 µM (inactive),> 100 µM (inactive),
Clc1ccc(C2SCc3nc4ccccc4n32)cc1 (centres undefined),,,23.2 µM (inactive),15.4 µM (inactive),,23.3 µM (inactive),15.2 µM (inactive),,14.9 µM (inactive),18.7 µM (inactive),18.5 µM (inactive),,16 µM (inactive),17.1 µM (inactive),4.88 µM (inactive),,8.2 µM (inactive),16.8 µM (inactive),
CC[C@]12C=CCN3CC[C@@]4(c5ccc(OC)cc5N(C)[C@H]4[C@@](O)(C(=O)OC)[C@@H]1OC(C)=O)[C@@H]32,,162 µM (inactive),132 µM (inactive),> 140 µM (inactive),172 µM (inactive),> 200 µM (inactive),131 µM (inactive),> 200 µM (inactive),> 200 µM (inactive),,,> 200 µM (inactive),182 µM (inactive),> 183 µM (inactive),51.3 µM (inactive),,> 172 µM (inactive),15.5 µM (inactive),147 µM (inactive)
